# From patent US20250034185A1 (priority 2021, published 2025)
# Entries after “also recorded” stand apart in the source; their conditions may differ.
# How the values were obtained:
# [1] = Single ascending dose study of P5P analog 16, oral, rats; assay type: in vivo; details: rat; for adverse reactions / clinical signs: single PO dose 10, 30, 100, 300 mg/kg, observed to 24 hrs
# Procedure: Single ascending dose studies were carried out (Example 97: P5P analog 16i: single ascending dose study) to assess the maximum tolerability of a P5P analog (compound of formula 16i) in rats under 4 different doses under one single administration via Per Os (P.O.—oral) route, and to inform the linearity of pharmacokinetics (PK) with multiple dosing.
# (§1) In order to isolate the effects of the administered compound of formula 16i on pyridoxine (PL) and P5P (PLP) levels, the basal levels of both PL and P5P were subtracted from the measured concentrations. Baseline subtraction was accomplished by subtracting pre-dose concentrations of either PL or P5P from the subsequent values in the time course.
# Formulation—P5P analog 16 was formulated in 1% methylcellulose in water on the day of dosing.
# (§2) Animals and group—17 CD ♂ rats with an approx. weigh of ˜250 g were used. Animals were split into 4 groups+1 extra (n=4 for each group). Animals were allowed a 5-day acclimatization period in animal facility. The animal room environment was controlled (temperature 22 f 0.2° C.; relative humidity 55 f 25%; 12 hours light/dark cycle, and 12 air changes per hour). A standard certified commercial rodent chow was provided to the animals ad libitum. Procedures involving the care and use of animals in this study were reviewed and approved by the Institutional Animal Care and Use Committee (IACUC) prior to conduct. One day prior to dosing on D-1, Rats were divided in 4 groups (Table 6). Animals were identified and bled for pre-dose blood. Rats in all groups were fasted overnight (12-14 hours) with access of water.
# On day 0, animals in groups 1-2-3 were weighed, and dosed by oral gavage as described in Table 6. Each remaining dosing solutions were stirred (or slightly vortexed), a 50 ul sample were collected and placed in separate tube and both vials immediately frozen on dry ice. Food tray were returned to animals two hours post dosing.
# Cage-side observation were done upon dosing, at the end of day, and 24 hrs post dosing (record adverse effect if observed). Animal were weighed again at 24 hrs post dosing.
# Blood was collected at indicated time points for all groups at: Pre-dose, 15′, 30′, 1 h, 2 h, 4 h, 6 h, 8 h, 24 h.
# (§3) About 150 μL of blood was collected at indicated time points below using K2EDTA tubes. Blood was kept on ice until centrifugation at 4° C. at 6000 RCF for 10 min. Plasma was collected and kept on dry ice until transferred at −80° C.
# [2] = Pharmacokinetic study 1: P5P and P5P analog 16, IV and PO, rats; assay type: in vivo; details: rat
# Procedure: Pharmacokinetic study 1 was carried out (see Example 98: P5P analog 16i: Pharmacokinetic study 1) to assess if P5P analog 16i was able to be converted to P5P and increase plasma P5P, to assess if P5P analog 16i was orally available, and to compare the ability of PO P5P analog 16i and PO P5P to increase plasma P5P.
# as §1, with “P5P analog” for “compound of formula”
# Formulation—Both P5P (pyridoxal-5-phosphate) and P5P analog 16 were formulated in phosphate buffered saline (PBS) as homogenous solutions on the day of dosing.
# as §2, with “and group—13” for “and group—17”, “extra (n=3” for “extra (n=4”, “(Table 7).” for “(Table 6). Animals were identified and bled for pre-dose blood.”, “in Group 3 and 4” for “in all groups”, “access to” for “access of”
# On day 0, animals were identified, weighted, and dosed by intravenous (IV) injection or oral gavage (PO) as described in Table 7. Food tray were returned to Group 3 and 4, 2 hrs post dosing.
# (§4) Blood was collected at indicated time points below for all groups: Pre-dose, 5′, 15′, 30′, 1 h, 2 h, 4 h, 6 h, 8 h, 24 h.
# as §3
# [3] = Pharmacokinetic study 4: SP isomer, RP isomer and D-amino acid prodrug, IV and PO, rats; assay type: in vivo; details: rat; for conversion to PLP in the plasma: IV (and PO)
# Excerpt: The goal of the study was to compare the pharmacokinetic (PK) profiles of the S-isomer (16i) and the R-isomer (16iii) at the phosphorus center, and to assess the effect of using the D-amino acid (16i with SP and RP isomers) on PK profile.
# as §1, with “agents” for “compound of formula 16i”, “PL” for “pyridoxine (PL)”, “PLP” for “P5P (PLP)”, “PLP” for “P5P were”, “PLP” for “P5P”
# Formulation—Prodrugs 16i (SP isomer), 16i (RP isomer) and 16i′ (16i with D-amino acid racemate) were formulated in phosphate buffered saline (PBS) as a homogenous solution on the day of dosing.
# as §2, with “and group—19” for “and group—17”, “into 6” for “into 4”, “extra (n=3” for “extra (n=4”, “in 6” for “in 4”, “(Table 1).” for “(Table 6).”, “in Group 4, 5 and 6” for “in all groups”
# On day 0, animals were weighted, and dosed by IV injection or by oral gavage as described in Table 10. Food tray were returned to Group 4, 5 and 6 two hours post dosing.
# as §4, §3
# [4] = test system: plasma enzymes; details: Sprague Dawley, rat
# [5] = Pharmacokinetic study 2: P5P analogs 16 and 16v, IV and PO, rats; assay type: in vivo; details: rat
# Procedure: Pharmacokinetic study 2 was carried out (Example 99: P5P analog 16i: Pharmacokinetic study 2) to assess the effect of the P5P analog 16v compared to P5P analog 16i.
# as §1, with “P5P analogs” for “compound of formula”, “16i and 16v” for “16i”, “P5P” for “P5P (PLP)”
# Formulation—Both P5P analog 16 and P5P analog 16v were formulated in 40% hydroxypropyl-β-cyclodextrin in water as homogenous solutions on the day of dosing.
# as §2, with “and group—13” for “and group—17”, “extra (n=3” for “extra (n=4”, “(Table 8).” for “(Table 6). Animals were identified and bled for pre-dose blood.”, “in Group 3 and 4” for “in all groups”, “access to” for “access of”
# On day 0, animals were identified, weighted, and dosed by intravenous (IV) injection or oral gavage (PO) as described in Table 8. Food tray were returned to Group 3 and 4, 2 hrs post dosing.
# as §4, §3
# [6] = Pharmacokinetic study 3: P5P analog 16vi and Compound II.I., IV and PO, rats; assay type: in vivo; details: rat
# Procedure: […] (Example 100: P5P analog 16vi and compound II.I.: Pharmacokinetic study 3) to assess the effect of a P5P analog not encompassed by the compound of Formula I (Compound II.I.), amino acid modification (P5P analog 16vi) and compounds of formula 16iii, 16i and a racemic mixture of 16i.
# as §1, with “Compound II.I. and P5P analog 16vi” for “compound of formula 16i”, “P5P” for “P5P (PLP)”
# Formulation—Compound II.I. was formulated in 0.9% saline while P5P analog 16vi was formulated in 40% hydroxypropyl-β-cyclodextrin in water as a homogenous solution on the day of dosing.
# as §2, with “and group—13” for “and group—17”, “extra (n=3” for “extra (n=4”, “(Table 9).” for “(Table 6). Animals were identified and bled for pre-dose blood.”, “in Group 3 and 4” for “in all groups”, “access to” for “access of”
# On day 0, animals were identified, weighted, and dosed by intravenous (IV) injection or oral gavage (PO) as described in Table 9. Food tray were returned to Group 3 and 4, 2 hrs post dosing.
# as §4
# About 150 μL of blood was collected at indicated time points below using K2EDTA tubes. Blood was kept on ice until centrifugation at 4° C. at 6000 RCF for 10 min. […]
structure (smiles),measurement,setting,value
"Cc1ncc(COP(=O)(N[C@@H](C)C(=O)OC(C)C)Oc2ccccc2)c(C=O)c1O (mixture of isomers) [Compound 16, (2S)-Isopropyl 2-(((4-formyl-5-hydroxy-6-methylpyridin-3-yl)methoxy)(phenoxy)phosphorylamino)propanoate]",adverse reactions / clinical signs,[1],no adverse reactions
same,time after which the dosed compound is no longer left/detectable in the plasma,[2]; IV 1 mg/kg,6 h
same,ability to increase plasma PLP compared to PLP itself,"[2]; given PO, FIGS. 7 a-d",improved ability
same,prodrug (P5P analog) time of peak,[2]; oral 10 mg/kg,0.5 hours
"Cc1ncc(COP(=O)(N[C@H](C)C(=O)OC(C)C)Oc2ccccc2)c(C=O)c1O (mixture of isomers) [Compound 16iii, (2R)-Isopropyl 2-(((4-formyl-5-hydroxy-6-methylpyridin-3-yl)methoxy)(phenoxy)phosphorylamino)propanoate]","PLP exposure, racemic D-amino acid prodrug compared with L-amino acid prodrug",[3],reduced PLP exposure
same,conversion to PLP in the plasma,[3],did not convert well to PLP
"Cc1ncc(CO[P@@](=O)(N[C@@H](C)C(=O)OC(C)C)Oc2ccccc2)c(C=O)c1O [Compound 16i, (S)-Isopropyl 2-((S)-((4-formyl-5-hydroxy-6-methylpyridin-3-yl)methoxy)(phenoxy)phosphorylamino)propanoate]",T1/2 of PL and PLP as dose was increased,[1]; PO 10-300 mg/kg,increase
same,plasma PL and P5P concentrations with increasing dose,[1]; PO 10-300 mg/kg,clear dose-dependent increase
same,dose linearity of plasma PL and PLP (Cmax and AUC),[1]; PO,dose linearity up to 300 mg/kg
same,signs of toxicity,[1]; highest dose group 300 mg/kg PO,did not show any signs of toxicity
same,adverse reactions / clinical signs,[1],no clinical signs were observed
same,"oral availability of the prodrug (crosses gastrointestinal wall, detectable in circulation)",[2]; dosed orally,orally bioavailable
same,conversion to PLP in the plasma,[3],readily converted to PLP
same,relative P5P formed,[4],100.0%
"CCC(CC)COC(=O)[C@H](C)NP(=O)(OCc1cnc(C)c(O)c1C=O)Oc1ccccc1 (stereo partly drawn) [Compound 16v, (2S)-2-Ethylbutyl 2-(((4-formyl-5-hydroxy-6-methylpyridin-3-yl)methoxy)(phenoxy)phosphorylamino)propanoate]","oral availability of the prodrug (crosses gastrointestinal wall, detectable in circulation)",[5]; dosed orally,orally bioavailable
same,Tmax,"[5]; male, CD, plasma, IV 1 mg/kg, read-out: prodrug (P5P analog) time of Cmax",6 min
same,plasma levels of P5P after oral dosing compared to P5P analog 16i,[5]; oral dosing,slightly greater amounts
"Cc1ncc(COP(=O)(N[C@@H](Cc2ccccc2)C(=O)OC(C)C)Oc2ccccc2)c(C=O)c1O (stereo partly drawn) [Compound 16vi, (2S)-Isopropyl 2-(((4-formyl-5-hydroxy-6-methylpyridin-3-yl)methoxy)(phenoxy)phosphorylamino)-3-phenylpropanoate]",oral bioavailability (detection in plasma after oral dosing),[6]; dosed orally,did not demonstrate significant oral bioavailability; also recorded: nor P5P were detected in the plasma at any significant levels
same,Cmax,"[6]; male, CD, plasma, po, orally 10 mg/kg, read-out: dosed compound Cmax in plasma",1650 ng/mL
same,dosed compound exposure,[6]; orally 10 mg/kg,1592 ng/ml*hr
